Results from article PMC7734336, “Riproximin Exhibits Diversity in Sugar Binding, and Modulates some Metastasis-Related Proteins with Lectin like Properties in Pancreatic Ductal Adenocarcinoma” (Frontiers in Pharmacology, 2020).

Legend:
Riproximin (Rpx) [1] = biological target: T1, Riproximin (Rpx) (Ximenia americana, UniProt Q2PA54); experiment: waterLOGSY NMR; type: binding; conditions: 298 K; pyranose anomers observed separately in one sample
Riproximin (Rpx) [2] = biological target: T1, Riproximin (Rpx); experiment: 1H NMR line broadening and waterLOGSY; type: binding; conditions: 298 K; pyranose anomers observed separately in one sample

T1 sequence (Q2PA54 53-325 limits assumed): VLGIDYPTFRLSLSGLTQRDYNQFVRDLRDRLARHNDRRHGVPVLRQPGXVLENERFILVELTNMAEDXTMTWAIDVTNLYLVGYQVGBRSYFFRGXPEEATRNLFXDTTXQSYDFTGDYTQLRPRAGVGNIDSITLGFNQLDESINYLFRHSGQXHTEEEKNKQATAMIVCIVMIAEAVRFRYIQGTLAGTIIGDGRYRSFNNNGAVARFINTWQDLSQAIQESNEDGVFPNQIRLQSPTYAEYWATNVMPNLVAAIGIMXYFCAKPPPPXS
T1 sequence (Q2PA54 334-601 limits assumed): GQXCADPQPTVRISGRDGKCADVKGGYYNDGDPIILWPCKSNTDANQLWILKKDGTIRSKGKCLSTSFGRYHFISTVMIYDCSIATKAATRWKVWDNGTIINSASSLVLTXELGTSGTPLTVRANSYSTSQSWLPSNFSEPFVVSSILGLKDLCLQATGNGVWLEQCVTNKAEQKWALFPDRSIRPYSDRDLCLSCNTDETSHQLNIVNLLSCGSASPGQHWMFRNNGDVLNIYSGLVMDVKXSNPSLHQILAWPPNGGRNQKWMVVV

Compound | waterLOGSY NMR (Riproximin (Rpx) [1]) | 1H NMR line broadening and waterLOGSY (Riproximin (Rpx) [2])
C[C@@H]1OC(O)[C@H](O)[C@H](O)[C@H]1O (mixture of isomers) [L-rhamnose] | water-LOGSY spectrum confirmed nevertheless the very weak binding of both, the α- and β-anomers of l-rhamnose | 
OC[C@H]1OC(O)[C@H](O)[C@@H](O)[C@H]1O (mixture of isomers) [D-galactose] |  | The affinities of both D-galactose and L-fucose for Rpx were moderate as evident by clear
C[C@@H]1OC(O)[C@@H](O)[C@H](O)[C@@H]1O (mixture of isomers) [L-fucose] |  | The methyl doublet signals of L-fucose show clear line broadening due to binding to Rpx
